Read-outs that look alike come from different tables or passages of the source.

Results on 64 compounds are retold here after patent US20150164899A1, “INHIBITION OF ADAPTOR ASSOCIATED KINASE 1 FOR THE TREATMENT OF PAIN” (priority 2012, published 2015).

For the assay, the target named is T1, AAK1 (full length human) in transfected HEK293F cells (Homo sapiens, UniProt Q2M2I8).
T1 construct: expressed in transfected cells; host or cells: HEK293F
In words: HEK281 cell-based assay (phospho-mu2 Western blot). The conditions noted are these: HEK281 cell-based assay, read-out: CBA IC50. As for the experimental part: HEK293F cells were cultured in media containing DMEM (Gibco, cat. #11965), 10% FBS (SAFC Biosciences, cat. #12103C), 1×GPS (glutamine, penicillin and streptomycin). On day one, cells were plated on a 10 cm dish so that they are ˜80% confluent at time of transfection. Roughly 12 million cells were in a 10 cm dish at time of transfection. On day two, each dish was transfected with 48 ug DNA and 144 ul Lipofectamine 2000 (Invitrogen, cat.#11668-019). The DNA was comprised of a mixture (per 10 cm dish) containing 3 ug AAK1/HA/pIRES (full length human, NCBI accession no. NP_055726.2), 45 μg Flag/AP2MI/pcDNA (full length human), and 1.5 ml OPTI-MEM. The Lipofectamine 2000 is made up of a mixture (per 10 cm dish) containing 144 μl Lipofectamine 2000 and 1.5 ml OPTI-MEM. Each mixture was transferred to individual 15 ml tubes and incubated at RT for 5 minutes, and then the two mixes were combined and incubated at RT for 20 minutes. Growth media was then aspirated from each 10 cm plate and replaced with 10 ml of DMEM+10% FBS (no GPS). Finally, 3 ml DNA/Lipofectamine mix was added to each 10 cm dish and mix gently followed by incubate of plate overnight at 37° C. and 5% CO2.
On day three, compounds were diluted in 100% DMSO at 1000× final concentration, followed by 3-fold serial dilutions for a total of 5 concentrations tested. Four compounds were tested per 10 cm dish. One ul of each compound dilution was then pipetted into a deep-well, 96-well plate, followed by addition of 500 μl DMEM+0.5% FBS into each well for a 2× final concentration of each compound. Cells were resuspended in a 10 cm dish by simple pipetting (HEK293 cells come off the plate that easy at this point) and then transferred to a 50 ml conical tube and pelleted by centrifugation at 1000 rpm for 5 min. Cell pellets were then resuspended in 2.75 ml DMEM+0.5% FBS per 10 cm dish and 100 μl of cell suspension transferred into each well of 96-well TC plate. Finally, 100 μl of 2× compound diluted in DMEM+0.5% FBS was then added into wells containing cell suspension for a 1× final concentration. Plates were then incubated at 37° C. and 5% CO2 for 3 hours followed by transferring of cell suspensions from each well into 12-tube PCR strips. The PCR strips were spun in a tip rack at 1000 rpm for 5 minutes to pellet cells and media was then removed by pipetting without disturbing the cell pellet.
To prepare for Western Blot analysis, cell pellets were resuspend in 40 ul 1×LDS-PAGE sample buffer (Invitrogen, cat.# NP0008)+2× Halt phophatase and protease inhibitor cocktail (Thermo Scientific, cat.#1861284), followed by sonicating each with microtip sonicator set at 5 for 8-10 seconds. Five ul of 10× NuPage Sample Reducing Agent (with […]) was to each sample followed by heat denaturing at 70 C. for 10 min on PCR machine. A total of 10 μl per sample was loaded into each lane of a 4-20% Tris-Glycine Criterion 26-well gel (Biorad, cat.#345-0034) for the phospho-mu2 blot and 10 μl per lane in a 4-12% Bis-Tris (+MES buffer) NuPAGE 26-well gel (Invitrogen, cat.# WG1403BX10) for the mu2 blot. For controls, 2 ng of phospho-mu2 or 20 ng mu2/Flag proteins were loaded in the last well of each gel. After SDS-PAGE, samples on each gel were transferred to PVDF membrane using an iBlot and membranes were blocked for one hour in TBST+5% milk, followed by wash 3× for 5-10 min with TBST. Criterion gels were probed with rabbit anti-phospho-mu2 (1:5000; a rabbit polyclonal antibody produced by New England Peptide and affinity purified at Lexicon) in TBST+5% BSA, whereas, NuPAGE gels were probed with mouse anti-Flag (1:500; Sigma, cat.# F1804) in TBST+5% milk, and these primary antibodies were incubated overnight at 4° C. on a rocker.
(In general: Immunoblotting shows a protein as a band on a membrane.)

Setting [1] is: Table 1 imidazo[1,2-b]pyridazines.
[2] abbreviates: pyrazolo[1,5-a]pyrimidine-based inhibitors.

T1 sequence (Q2M2I8 1-863 isoform Q2M2I8-2): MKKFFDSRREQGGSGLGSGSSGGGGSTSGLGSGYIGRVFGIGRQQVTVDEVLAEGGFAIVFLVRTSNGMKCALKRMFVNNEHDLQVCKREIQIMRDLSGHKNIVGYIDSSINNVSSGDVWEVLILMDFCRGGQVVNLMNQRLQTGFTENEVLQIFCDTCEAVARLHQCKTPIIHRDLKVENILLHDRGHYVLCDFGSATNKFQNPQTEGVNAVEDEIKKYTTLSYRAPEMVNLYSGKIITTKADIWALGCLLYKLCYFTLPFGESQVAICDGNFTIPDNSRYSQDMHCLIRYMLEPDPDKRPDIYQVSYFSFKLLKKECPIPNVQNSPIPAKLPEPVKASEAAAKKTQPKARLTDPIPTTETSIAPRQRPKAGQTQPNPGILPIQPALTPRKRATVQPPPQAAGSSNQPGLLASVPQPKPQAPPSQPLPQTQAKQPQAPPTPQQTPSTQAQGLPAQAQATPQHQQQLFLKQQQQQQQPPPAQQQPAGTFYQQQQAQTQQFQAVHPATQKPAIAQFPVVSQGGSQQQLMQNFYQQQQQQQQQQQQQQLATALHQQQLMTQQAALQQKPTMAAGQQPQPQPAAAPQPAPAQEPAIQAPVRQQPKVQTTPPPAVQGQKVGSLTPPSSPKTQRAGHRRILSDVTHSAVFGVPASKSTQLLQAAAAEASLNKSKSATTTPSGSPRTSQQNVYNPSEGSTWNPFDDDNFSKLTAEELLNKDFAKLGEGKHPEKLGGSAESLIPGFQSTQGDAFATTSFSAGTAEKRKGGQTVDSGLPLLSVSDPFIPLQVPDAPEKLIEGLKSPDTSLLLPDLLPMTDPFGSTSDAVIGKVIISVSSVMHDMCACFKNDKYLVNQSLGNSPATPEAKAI

For orientation: IC50 means the concentration needed to halve the response being measured. With `COc1cnccc1-c1cnc2ccc(-c3cccc(C(=O)CCC(C)C)c3)nn12`, under setting [1], the IC50 is at most 100 nM. `CC(C)CCC(=O)c1cccc(-c2ccc3ncc(-c4ccc(CN)cc4)n3n2)c1`: the 50% inhibitory concentration (IC50) under setting [1] was at most 100 nM. Same read-out and setting: with `CC(=O)c1cccc(-c2ccc3ncc(-c4ccc(CN)cc4)n3n2)c1` the figure was at most 100 nM. As for `COc1ncccc1-c1cnn2ccc(N3CCN(C(=O)CC(C)C)CC3)nc12`, the IC50 under setting [2] was at most 100 nM. On to `COCCOC(=O)N1CCN(c2ccn3ncc(-c4cccnc4OC)c3n2)CC1`, for which the IC50 under setting [2] was at most 100 nM. For the compound `CC(C)CNC(=O)c1cccc(-c2ccc3ncc(-c4ccc(CN)cc4)n3n2)c1`, the half-maximal inhibitory concentration (IC50) under setting [1] was at most 100 nM.

On to `COc1cnccc1-c1cnn2ccc(NCCc3ccccc3OC(F)(F)F)nc12`, for which the half-maximal inhibitory concentration (IC50) under setting [2] was at most 10 nM. In the case of `CCCCNc1ccc2ncc(-c3ccc(CN)c(F)c3)n2n1`, the IC50 under setting [1] was at most 1000 nM.

Regarding `NCc1ccc(-c2cnn3ccc(NCCOC4CCCC4)nc23)cc1`, under setting [2], the IC50 was at most 100 nM.

Regarding `CC(C)(C)COCCNc1ccn2ncc(-c3ccc(CN)cc3)c2n1`, the IC50 under setting [2] is at most 100 nM. For `CC(C)(C)OCCNc1ccn2ncc(-c3ccc(CN)cc3)c2n1`, the half-inhibitory concentration (IC50) under setting [2] was at most 100 nM. As to `NCc1ccc(-c2cnn3ccc(NCCc4ccccc4OC(F)(F)F)nc23)cc1`, the IC50 under setting [2] is at most 10 nM. Same read-out and setting: with `COCCNc1ccn2ncc(-c3ccc(CN)cc3)c2n1` the figure was at most 100 nM; with `NCc1ccc(-c2cnn3ccc(NCCCOC4CCCC4)nc23)cc1`, at most 100 nM.

As for `NCc1ccc(-c2cnc3ccc(NCC4CCCCC4)nn23)cc1`, the IC50 under setting [1] is at most 1000 nM. On to `CCCCNc1ccn2ncc(-c3ccc(CN)cc3)c2n1`, for which the half-inhibitory concentration (IC50) under setting [2] is at most 100 nM.

Turning to `COc1ccncc1-c1cnn2ccc(NCCc3ccccc3OC(F)(F)F)nc12`, the half-inhibitory concentration (IC50) under setting [2] was at most 100 nM. As to `CN(C)CCOCc1ccc(-c2cnc3ccc(NCCC(C)(C)C)nn23)cc1`, under setting [1], the half-inhibitory concentration (IC50) was at most 100 nM.

Regarding `Brc1cnn2ccc(NCCCOC3CCCC3)nc12`, the IC50 under setting [2] is at most 1000 nM. On to `CCCCNc1ccn2ncc(-c3ccc(C(=O)NCCNC)cc3)c2n1`, for which, under setting [2], the half-maximal inhibitory concentration (IC50) is at most 100 nM.

As to `CC(C)(C)OCCNc1ccc2ncc(-c3ccc(C(N)=O)cc3)n2n1`, the IC50 under setting [1] was at most 100 nM. As to `COc1cccc(CCNc2ccc3ncc(-c4ccc(C(N)=O)cc4)n3n2)c1`, the concentration for half-maximal inhibition (IC50) under setting [1] is at most 100 nM. Consider `CC(C)CNC(=O)c1cncc(-c2ccc3ncc(-c4ccc(CN)cc4)n3n2)c1`, for which the 50% inhibitory concentration (IC50) under setting [1] is at most 100 nM. On to `CCCCNc1ccc2ncc(C(=O)Nc3ccc(C(=O)NCCN(C)C)cc3)n2n1`, for which the IC50 under setting [1] was at most 100 nM. For the compound `COc1cnccc1-c1cnn2ccc(NCCOC3CCCC3)nc12`, the half-inhibitory concentration (IC50) under setting [2] was at most 100 nM. On the same count and under the same terms, with `COc1cnccc1-c1cnn2ccc(NCCOC(C)(C)C)nc12` the figure was at most 100 nM; with `COCCNc1ccn2ncc(-c3ccc(C(=O)NCCN)cc3)c2n1`, at most 1000 nM.

In the case of `CC(C)(C)CCNc1ccn2ncc(-c3ccc(C(=O)NCCN)cc3)c2n1`, the IC50 under setting [2] is at most 1000 nM. Take `CCCCNc1ccn2ncc(-c3ccc(C(=O)NCCN)cc3)c2n1`: the 50% inhibitory concentration (IC50) under setting [2] is at most 100 nM. Regarding `COCCNc1ccn2ncc(-c3ccccc3)c2n1`, the IC50 under setting [2] was at most 1000 nM. As for `COc1cnccc1-c1cnn2ccc(NCCCOC3CCCC3)nc12`, the IC50 under setting [2] is at most 100 nM. Take `COc1cnccc1-c1cnc2ccc(-c3cccc(C(=O)NCC(C)C)c3)nn12`: the 50% inhibitory concentration (IC50) under setting [1] was at most 100 nM. Still for that read-out and setting: with `CNC(=O)c1ccc(-c2cnc3ccc(-c4cccc(C(=O)NCC(C)C)c4)nn23)cc1` the figure was at most 100 nM; with `CC(C)NC(=O)N1CCN(c2ccc3ncc(-c4ccccc4)n3n2)CC1`, at most 100 nM. Still for that read-out and setting: with `CCCCSc1ccc2ncc(-c3ccc(CN)cc3)n2n1` the figure was at most 1000 nM.

Regarding `COc1ccccc1-c1cnn2ccc(NC[C@@H]3CCCN3C(=O)NC(C)(C)C)nc12`, under setting [2], the 50% inhibitory concentration (IC50) is at most 100 nM. Turning to `CC(C)OC(=O)N1CCC[C@H]1CNc1ccc2ncc(Cl)n2n1`, the IC50 under setting [1] was at most 100 nM. On the same count and under the same terms, as for `CC(C)(C)OC(=O)N1CCC[C@H]1CCNc1ccc2ncc(-c3ccc(CN)cc3)n2n1`, the figure is at most 100 nM. For `CCc1ccccc1-c1cnn2ccc(NC[C@@H]3CCCN3C(=O)OC(C)(C)C)nc12`, the IC50 under setting [2] was at most 100 nM. Still for that read-out and setting: with `CC(C)(C)OC(=O)N1CCC[C@H]1CNc1ccn2ncc(-c3ccc(C(N)=O)cc3)c2n1` the figure was at most 1000 nM. Regarding `CC(C)(C)OC(=O)N1CCC[C@H]1CNc1ccn2ncc(C(F)(F)F)c2n1`, the IC50 under setting [2] is at most 100 nM.

Turning to `CC(C)(C)OC(=O)N1CCC[C@H]1CNc1ccn2ncc(I)c2n1`, the 50% inhibitory concentration (IC50) under setting [2] was at most 100 nM. With `CC(C)(C)OC(=O)N1CCC[C@H]1CNc1ccn2ncc(-c3ccccc3)c2n1`, the half-maximal inhibitory concentration (IC50) under setting [2] was at most 100 nM.

As to `CCOC(=O)N(C)CCNc1ccn2ncc(-c3ccc(C(=O)NC)cc3)c2n1`, the half-maximal inhibitory concentration (IC50) under setting [2] was at most 100 nM. The same measure, in the same setting: as for `CNC(=O)c1ccc(-c2cnn3ccc(NCCN(C)C(=O)OCC(C)C)nc23)cc1`, the figure is at most 1000 nM; as for `CC(C)OC(=O)N1CCN(c2ccn3ncc(-c4cccn(C)c4=O)c3n2)CC1`, at most 100 nM; as for `CCOc1ncccc1-c1cnn2ccc(N3CCN(C(=O)OC(C)C)CC3)nc12`, at most 100 nM. Take `CC(C)OC(=O)N1CCN(c2ccn3ncc(-c4cccnc4F)c3n2)CC1`: under setting [2], the IC50 is at most 100 nM. The same measure, in the same setting: as for `COc1nc(C)ccc1-c1cnn2ccc(N3CCN(C(=O)OC(C)C)CC3)nc12`, the figure is at most 100 nM; as for `COc1cnccc1-c1cnn2ccc(N3CCN(C(=O)OC(C)C)CC3)nc12`, at most 100 nM. The same measure, in the same setting: as for `COc1ncc(F)cc1-c1cnn2ccc(N3CCN(C(=O)OC(C)C)CC3)nc12`, the figure is at most 100 nM; as for `COc1cnccc1-c1cnn2ccc(NCCN(C)C(=O)OC(C)C)nc12`, at most 10 nM. For the compound `CC(C)OC(=O)N(C)CCNc1ccn2ncc(-c3ccc(CN)cc3)c2n1`, the IC50 under setting [2] is at most 100 nM. On the same count and under the same terms, as for `CC(C)OC(=O)N(C)CCNc1ccn2ncc(-c3ccc(C(N)=O)cc3)c2n1`, the figure is at most 10 nM.

With `COc1ccncc1-c1cnn2ccc(NCCN(C)C(=O)OC(C)C)nc12`, under setting [2], the half-inhibitory concentration (IC50) is at most 100 nM. Same read-out and setting: with `CNCCNC(=O)c1ccc(-c2cnn3ccc(NCCN(C)C(=O)OC(C)C)nc23)cc1` the figure was at most 100 nM; with `CNC(=O)c1ccc(-c2cnn3ccc(NCCN(C)C(=O)OC(C)C)nc23)cc1`, at most 10 nM. Still for that read-out and setting: with `CC(C)OC(=O)N(C)CCNc1ccn2ncc(-c3ccc(C4CCCN4)cc3)c2n1` (stereo not shown) the figure was at most 10 nM; with `COCCNc1ccn2ncc(-c3ccc(C(=O)NCCNC(=O)OC(C)(C)C)cc3)c2n1`, at most 1000 nM. On the same count and under the same terms, as for `COc1cnccc1-c1cnn2ccc(NCCN(C)C(=O)OC(C)(C)C)nc12`, the figure is at most 10 nM. On to `CN(CCNc1ccn2ncc(-c3ccc(C(N)=O)cc3)c2n1)C(=O)OC(C)(C)C`, for which the IC50 under setting [2] is at most 10 nM.

As for `CN(CCNc1ccc2ncc(-c3ccc(C#N)cc3)n2n1)C(=O)OC(C)(C)C`, under setting [1], the IC50 is at most 100 nM. `CNC(=O)c1ccc(-c2cnn3ccc(NCCN(C)C(=O)OC(C)(C)C)nc23)cc1`: the concentration for half-maximal inhibition (IC50) under setting [2] was at most 10 nM. With `CN(CCNc1ccc2ncc(-c3ccccc3)n2n1)C(=O)OC(C)(C)C`, the IC50 under setting [1] is at most 100 nM.
